Laboratory results: patent publication US20080108698A1, “Nutrient Supplement and Use of the Same” (OY ELMOMED LTD, priority 2004, published 2008)
Where “and” joins values, the source holds several entries; their conditions need not be identical. Equal entries are not always repeated.

Legend:
[1] = Example 2: subjective muscle aches and laboratory tests; type: in vivo, human; conditions: one basket ball player
Method: (§1) A basket ball player (weight 83.7 kg; BMI 26.8 kg/m^2) took after intensive daily training sessions 0.496 g of HICA three times a day for 42 days in an identical design as described in Example 1. The composition of their soft tissue was analyzed in detail. DEXA-results were analyzed by a software discriminating successfully between bone, fat and lean body mass.

[2] = commercially available colorless crystals; cited from earlier work
[3] = Example 1: blood pressure, heart rate and clinical chemistry before and after HICA; type: in vivo, human; conditions: n = 7, after 42 days
Source text: (§2) In order to assess the effects of HICA (α-hydroxy-isocaproic acid) on exercise induced muscle pain and body composition, 0.496 g of HICA (produced in VTT Technical Research Centre of Finland, Helsinki) was given thrice daily after intensive training sessions to 7 healthy volunteers for 42 days in an open study. The volunteers were national top wrestlers, weighing 79.7+/−4.5 kg (mean+/−SD) and aging 26+/−6 years (mean+/−SD). They had at least 10 training sessions a week, each lasting from 1.5 to 2.5 hours. Before the study the subjects underwent a medical examination. Twenty ml of blood was taken for chemical assays and the body weight and body composition were assessed by dual-energy X-ray absorptiometry (DEXA; LUNAR GE Medical Systems) just before starting the 42-day HICA intake. The subjects took HICA orally as liquid (62.5 g HICA dissolved in 630 ml water and buffered by NaOH to pH 3.8). The single dose taken three times a day after each training session was 5 ml (containing […] of HICA) of the solution mixed with apple juice. On those days they had less than three training session they took extra doses of HICA so that 3 doses were taken each day. The total daily dose was 1488 mg of HICA.

mice = conditions: iv. in mice, Na-salt; cited from earlier work
[4] = Example 2: basket ball player case study, body composition by DEXA; type: in vivo, human
Method: as §1

[5] = Example 1: open 42-day study in top wrestlers, body weight and body composition by DEXA; type: in vivo, human
Source text: as §2, with “hours. During 6 weeks preceding the HICA period there were no essential changes in the body weight of the wrestlers. At least for 6 weeks before and during the trial daily diets and the number, intensity, and length of daily training sessions were kept constant.” for “hours.”

[6] = Example 1: subjects' reports of muscle pain, stiffness, aches, power performance and adverse effects; type: in vivo, human
Source text: In order to assess the effects of HICA (α-hydroxy-isocaproic acid) on exercise induced muscle pain and body composition, 0.496 g of HICA (produced in VTT Technical Research Centre of Finland, Helsinki) was given thrice daily after intensive training sessions to 7 healthy volunteers for 42 days in an open study. The volunteers were national top wrestlers, weighing 79.7+/−4.5 kg (mean+/−SD) and aging 26+/−6 years (mean+/−SD). They had at least 10 training sessions a week, each lasting from 1.5 to 2.5 hours.
The subjects took HICA orally as liquid (62.5 g HICA dissolved in 630 ml water and buffered by NaOH to pH 3.8). The single dose taken three times a day after each training session was 5 ml (containing […] of HICA) of the solution mixed with apple juice. On those days they had less than three training session they took extra doses of HICA so that 3 doses were taken each day. The total daily dose was 1488 mg of HICA.
Subjects were asked to report all feelings they would associate with the treatment with HICA, e.g. pain, stiffness or aches in muscles felt during and after the training sessions.

[7] = Example 1: open 42-day study in top wrestlers, body weight and body composition by DEXA; type: in vivo, human; conditions: individual subjects 1-7; after 42 days, 0.496 g thrice daily orally
[8] = Barlas et al.; 11-day study period, 60 study subjects; cited from earlier work
[9] = Trappe et al. 2002; cited from earlier work
[10] = after vs before 42-day treatment
[11] = one basketball player, after 42-day treatment
[12] = individual subjects 1-7, after 42 days
[13] = individual subjects 1-7, after 42 days, DEXA
[14] = mean of 7 subjects, after 42 days, P < 0.05 vs before

## CC(C)CC(O)C(=O)O (racemic) [HICA, DL-α-hydroxy-isocaproic acid]
[1]; 42 days
  exercise related muscle aches and pains (subjective report): disappearance of all exercise related muscle aches and pains
[1]; data not shown
  laboratory tests, e.g. blood pressure, heart rate or blood analyses: no changes
[2]
  solubility: soluble in water and alcohols
[3]; NS
  B-Erythrocytes, After HICA, mean: 4.9 E12/l
  B-Hematocrite, After HICA, mean: 42.6%
  B-Hemoglobin, After HICA, mean: 149.1 g/L
  B-Leucocytes, After HICA, mean: 5.7 E9/l
  E-MCH, After HICA, mean: 30.4 pg
  E-MCHC, After HICA, mean: 347.9 g/L
  E-MCV, After HICA, mean: 87.4 fL
  S-Alanine amino transferase, After HICA, mean: 31.6 U/l
  fS-Creatinine, After HICA, mean: 89.2 µM
  heart rate, After HICA, mean: 62.0 min⁻¹
[3]; P < 0.01 vs before
  diastolic blood pressure, After HICA, mean: 75.7 mmHg
[3]; P < 0.05 vs before
  systolic blood pressure, After HICA, mean: 139.7 mmHg
mice
  LD50: 650 mg/kg
[4]; DEXA, one basket ball player, 42 days
  gain of lean body mass during the treatment: 2.65 kg
[4]; [10]
  bone, Change: +0.0 g
  fat, Change: 0.3 kg
  lean, extremities, Change: 1.6 kg
  lean, other, Change: +0.0 g
  lean, total, Change: +2.7 g
  lean, trunk, Change: 1 kg
  weight, Change: 3 kg
[4]; [11]
  bone, After HICA: 4.1 kg
  fat, After HICA: 8.1 kg
  lean, extremities, After HICA: 34.8 kg
  lean, other, After HICA: 4.3 kg
  lean, total, After HICA: 74.4 kg
  lean, trunk, After HICA: 35.45 kg
  weight, After HICA: 86.6 kg
[5]; 42-day treatment, 7 subjects
  change of bone weight (DEXA): not changed
[5]; 42-day treatment, P<0.05, paired t-test
  change of total soft tissue mass (total weight - bone weight): increased significantly
[5]; 42-day treatment, P<0.05 and P<0.001, respectively
  change of soft tissue masses of all extremities and trunk: increased significantly
[5]; [12]
  Total weight of soft tissue in extremities, After HICA: 33.2 kilograms and 35.7 kilograms (2×) and 34.7 kilograms and 38.5 kilograms and 35.2 kilograms and 39.0 kilograms
  Total weight of soft tissue in trunk, After HICA: 38.0 kilograms and 38.3 kilograms and 39.7 kilograms and 40.4 kilograms and 43.1 kilograms and 39.8 kilograms and 44.8 kilograms
[5]; [13]
  Bone weight, After HICA: 4.1 kilograms (2×) and 4.4 kilograms and 4.0 kilograms (2×) and 3.6 kilograms and 3.9 kilograms
  Soft tissue weight, After HICA: 75.0 kilograms and 83.7 kilograms and 71.2 kilograms and 74.0 kilograms and 75.4 kilograms and 75.1 kilograms and 81.6 kilograms
[5]; mean of 7 subjects, after 42 days, P < 0.001 vs before
  Total weight of soft tissue in trunk, After HICA, mean: 40.6 kilograms
[5]; [14]
  Soft tissue weight, After HICA, mean: 76.6 kilograms
  Total weight of soft tissue in extremities, After HICA, mean: 36.0 kilograms
  Whole body weight, After HICA, mean: 80.57 kilograms
[5]; mean of 7 subjects, after 42 days, nonsignificant vs before
  Bone weight, After HICA, mean: 4.0 kilograms
[5]; mean+/-SD, 7 subjects, 42-day treatment, P<0.05 paired t-test
  mean weight gain during the treatment period: 0.8 kg and 0.84 ± 1.0 kg
[6]; 42-day treatment, 7 top athletes
  adverse effects: without any adverse effects
[6]; all 7 subjects, 42-day treatment
  pain, stiffness and aches in muscles felt during and after the training sessions (subjects' reports): abolishment of pain, stiffness and aches in muscles
[6]; subjective, after the treatment with HICA
  subjects reporting enhanced power performance: 6 out of 7
[7]
  Whole body weight, After HICA: 79.1 kilograms and 88.1 kilograms and 75.2 kilograms and 77.6 kilograms and 79.3 kilograms and 79 kilograms and 85.7 kilograms

## CC(=O)Oc1ccccc1C(=O)O [aspirin]
[8]
  effect on delayed-onset muscle soreness induced by eccentric exercise: neither aspirin, paracetamol nor codeine had a beneficial effect

## COc1ccc2c3c1O[C@H]1[C@@H](O)C=C[C@H]4[C@@H](C2)N(C)CC[C@@]341 [codeine]
[8]
  effect on delayed-onset muscle soreness induced by eccentric exercise: neither aspirin, paracetamol nor codeine had a beneficial effect

## CC(C)Cc1ccc(C(C)C(=O)O)cc1 (centres unmarked) [ibuprofen]
[9]
  effect on eccentric resistant training induced muscle soreness: Neither ibuprofen nor paracetamol reduced eccentric resistant training induced muscle soreness

## CC(=O)Nc1ccc(O)cc1 [paracetamol]
[8]
  effect on delayed-onset muscle soreness induced by eccentric exercise: neither aspirin, paracetamol nor codeine had a beneficial effect
[9]
  effect on eccentric resistant training induced muscle soreness: Neither ibuprofen nor paracetamol reduced eccentric resistant training induced muscle soreness
